Measured values taken from PMC11045764, “The dual coding of a single sex pheromone receptor in Asian honeybee Apis cerana” (Communications Biology, 2024).
pEC50: −log10 of the molar value.

Assays:
[1] = system: T1, AcerOr11; assay: two-electrode voltage clamp in Xenopus oocytes (inverse currents; also inhibits 9-ODA-evoked currents); format: cell-based, Apis cerana
T1 construct: gene Or11; AcerOr11 co-expressed with AcerOrco in Xenopus laevis oocytes; with AcerOrco

[2] = system: T1, AcerOr11; assay: two-electrode voltage clamp in Xenopus oocytes (agonist, dose-response and I-V curves); format: cell-based, Apis cerana

`COC(=O)c1ccc(O)cc1` [HOB, methyl p-hydroxybenzoate] showed a pEC50 [1] of 6.82.

`CC(=O)CCCCC/C=C/C(=O)O` [9-ODA, 9-oxo-(E)-2-decenoic acid] was tested, and the pEC50 [2] was 9.46.
